Data as given in US20240350458A1, “14-3-3 PROTEIN MODULATORS AS ANTITUMOR AGENTS” (priority 2021, published 2024).
Like-named read-outs stand apart in the source and are kept apart here.

Assays:
SW1736 = assay: MTT assay, ATC cell line, fixed concentrations; type: cell-based; settings: Homo sapiens, SW-1736, 48 h, read-out: % of proliferating cells; for viability at 0.02 µM: SW1736, 20 nM; for viability at 0.1 µM: SW1736, 100 nM; for viability at 20 µM: SW1736, 20000 nM
Protocol: (§1) The compounds FC91, SB14, SB17, SB18, SB19, SB20, SB21 and FC85 were employed in a cellular screening at fixed concentration ranging from 20 nM to 20 μM.
(§2) Table 2: Four human thyroid cancer cell lines were incubated with FC91, SB14, SB17, SB18, SB19, SB20A, SB20b, SB21 and FC85 for 48 h at fixed concentration of 20,100 and 20000 nM and then assayed with MTT. Data are reported as % of proliferating cells.

8505c = assay: MTT assay, ATC cell line, fixed concentrations; type: cell-based; settings: Homo sapiens, 48 h, read-out: % of proliferating cells; for viability at 0.02 µM: 20 nM; for viability at 0.1 µM: 100 nM; for viability at 20 µM: 20000 nM
Protocol: as §1, §2

Nthory = assay: MTT assay, ATC cell line, fixed concentrations; type: cell-based; settings: Homo sapiens, 48 h, read-out: % of proliferating cells; for viability at 0.02 µM: 20 nM; for viability at 0.1 µM: 100 nM; for viability at 20 µM: 20000 nM
Protocol: as §1, §2

FRO = assay: MTT assay, ATC cell line, fixed concentrations; type: cell-based; settings: Homo sapiens, 48 h, read-out: % of proliferating cells; for viability at 0.02 µM: 20 nM; for viability at 0.1 µM: 100 nM; for viability at 20 µM: 20000 nM
Protocol: as §1, §2

[1] = test system: four human ATC cell lines; assay: Cellular screening in four human ATC cell lines; type: cell-based
HBL1 = assay: MTT proliferation assay, B-cell lymphoma cell line; type: cell-based; settings: HBL1, 72 h of drug incubation
Protocol: (§3) All the above compounds were tested in vitro for their anticancer activity against a panel of eight B-cell lymphoma cell lines by MTT proliferation assay. The tested cell lines belonging to mantle cell lymphoma (MCL: REC1, Z138), activated B-cell diffuse large B-cell lymphoma (ABC-DLBCL: R11, HBL1, U2932, TMD8), germinal center B-cell diffuse large B-cell lymphoma (GCB-DLBCL: SU-DHL-10, FARAGE) subtypes. In overall, MCL cell lines present Cyclin D1 overexpression, while ABC- and GCB-DLBCL's proliferation is BCR and BCL6/HDACs driven, respectively. At the RNA level, all tested lymphoma cell lines were characterized by an overexpression of 14-3-3 zeta as reported for B-cell lymphomas resistant to chemotherapeutic regimen.

FARAGE = assay: MTT proliferation assay, B-cell lymphoma cell line; type: cell-based; settings: 72 h of drug incubation
Protocol: as §3

Z138 = assay: MTT proliferation assay, B-cell lymphoma cell line; type: cell-based; settings: Homo sapiens, Z-138; Z138, 72 h of drug incubation
Protocol: as §3

REC1 = assay: MTT proliferation assay, B-cell lymphoma cell line; type: cell-based; settings: Homo sapiens; REC1, 72 h of drug incubation
Protocol: as §3

U2932 = assay: MTT proliferation assay, B-cell lymphoma cell line; type: cell-based; settings: Homo sapiens; U2932, 72 h of drug incubation
Protocol: as §3

SUDHL10 = assay: MTT proliferation assay, B-cell lymphoma cell line; type: cell-based; settings: Homo sapiens, SU-DHL10; SUDHL10, 72 h of drug incubation
Protocol: as §3

TMD8 = assay: MTT proliferation assay, B-cell lymphoma cell line; type: cell-based; settings: Homo sapiens; TMD8, 72 h of drug incubation
Protocol: as §3

RI1 = assay: MTT proliferation assay, B-cell lymphoma cell line; type: cell-based; settings: Ri-1; RI1, 72 h of drug incubation
Protocol: as §3

[2] = test system: eight B-cell lymphoma cell lines; assay: MTT proliferation assay, panel of eight B-cell lymphoma cell lines; type: cell-based; settings: for activity in lymphoma cell lines: eight lymphoma cell lines; for IC50: B-cell, read-out: IC50 in all eight lymphoma cell lines
Protocol: as §3

glioblastoma cell = settings: combined with temozolomide; cited from earlier work
[3] = Homo sapiens, in one (i.e. SB17) to four (i.e. SB20b) cell lines of anaplastic thyroid cancer, read-out: IC50 value in ATC cell lines
[4] = human ATC cell lines, read-out: IC50 values in ATC cell lines

IC50 [1, 3] [µM]	IC50 (HBL1) [µM]	IC50 (FARAGE) [µM]	IC50 (Z138) [µM]	IC50 (REC1) [µM]	IC50 (U2932) [µM]	IC50 (SUDHL10) [µM]	IC50 (TMD8) [µM]	Structure (SMILES)	viability at 0.02 µM (SW1736) [%]	viability at 0.1 µM (SW1736) [%]	viability at 20 µM (SW1736) [%]	viability at 0.02 µM (8505c) [%]	viability at 0.1 µM (8505c) [%]	viability at 20 µM (8505c) [%]	viability at 0.02 µM (Nthory) [%]	viability at 0.1 µM (Nthory) [%]	viability at 20 µM (Nthory) [%]	viability at 0.02 µM (FRO) [%]	viability at 0.1 µM (FRO) [%]	viability at 20 µM (FRO) [%]	also measured
0.1 to 20								Cc1ccc(S(=O)(=O)Nc2ccc3c(c2)/C(=C/c2ncc[nH]2)C(=O)N3)cc1 [SB19, (Z)—N-(3-((1H-imidazol-2-yl)methylene)-2-oxoindolin-5-yl)-4-methylbenzenesulfonamide]	80	85	59	74	74	37	81	61	43	78	74	51	IC50 [1, 4]: 0.1 to 0.2 µM
0.1 to 20								Cc1ccc(S(=O)(=O)Nc2ccc3c(c2)/C(=C/c2ccn[nH]2)C(=O)N3)cc1 [SB17, (Z)—N-(3-((1H-pyrazol-5-yl)methylene)-2-oxoindolin-5-yl)-4-methylbenzenesulfonamide]	81	99	63	90	119	59	89	73	48	80	113	55	
0.1 to 20								Cc1ccc(S(=O)(=O)Nc2ccc3c(c2)C(=C2c4ccccc4-c4ccccc42)C(=O)N3)cc1 [SB21, N-(3-(9H-fluoren-9-ylidene)-2-oxoindolin-5-yl)-4-methylbenzenesulfonamide]	108	103	64	82	134	37	91	94	15	93	114	60	
	> 20	> 20	8	16	> 20	19	> 20	CS(=O)(=O)Nc1ccc2c(c1)/C(=C/c1cnc[nH]1)C(=O)N2 [FC100, reference compound]													IC50 (RI1): 5.5 µM; activity in lymphoma cell lines [2]: almost inactive
	0.04	0.025	0.05	0.05	0.05	0.05	0.05	Cc1ccc(S(=O)(=O)Nc2ccc3c(c2)C(=Cc2nccn2C)C(=O)N3)cc1 (stereo in doubt) [FC91, N-{(3E)-3-[(1-methyl-1H-imidazol-2-yl)methylidene]-2-oxo-2,3-dihydro-1H-indol-5-yl}-4-methylbenzenesulfonamide]	73	52	60	79	38	48	84	55	47	63	46	55	IC50 (RI1): 0.03 µM; IC50 [2]: < 1 µM; IC50 in eight different lymphoma cell lines ([2]; eight different lymphoma cell lines): nanomolar range; IC50 [1, 4]: 0.1 to 0.2 µM
0.1 to 20								Cc1ccc(S(=O)(=O)Nc2ccc3c(c2)C(=Cc2cccnc2N)C(=O)N3)cc1 [SB20, N-(3-((2-aminopyridin-3-yl)methylene)-2-oxoindolin-5-yl)-4-methylbenzenesulfonamide]													
0.1 to 20	0.6	0.5	0.5	1	0.5	0.6	0.6	Cc1ccc(S(=O)(=O)Nc2ccc3c(c2)/C(=C/c2cnc[nH]2)C(=O)N3)cc1 [FC85, N-[(3Z)-3-(1H-imidazol-5-ylmethylidene)-2-oxo-2,3-dihydro-1H-indol-5-yl]-4-methylbenzenesulfonamide]	90	67	56	80	99	36	78	83	38	75	98	42	IC50 (RI1): 0.5 µM; IC50 [2]: < 1 µM; inhibition of glioblastoma cell viability, combination vs single treatment (glioblastoma cell): significant increase in inhibition
	> 20	> 20	> 20	15	> 20	> 20	> 20	CS(=O)(=O)Nc1ccc2c(c1)/C(=C/c1cccs1)C(=O)N2 [FC96, reference compound]													IC50 (RI1): 20 µM; activity in lymphoma cell lines [2]: almost inactive
0.1 to 20								Cc1ccc(S(=O)(=O)Nc2ccc3c(c2)/C(=C/c2cnc(C)[nH]2)C(=O)N3)cc1 [SB14, (Z)-4-methyl-N-(3-((2-methyl-1H-imidazol-5-yl)methylene)-2-oxoindolin-5-yl)benzenesulfonamide]	84	102	70	97	128	65	95	77	41	92	113	57	
								Cc1ccc(S(=O)(=O)Nc2ccc3c(c2)C(=Cc2cccnc2N)C(=O)N3)cc1 [SB20A, N-(3-((2-aminopyridin-3-yl)methylene)-2-oxoindolin-5-yl)-4-methylbenzenesulfonamide]	82	89		78	99	35	99	77	63	85			
0.1 to 20								Cc1ccc(S(=O)(=O)Nc2ccc3c(c2)/C(=C/c2cn[nH]c2)C(=O)N3)cc1 [SB18, (E/Z)—N-(3-((1H-pyrazol-4-yl)methylene)-2-oxoindolin-5-yl)-4-methylbenzenesulfonamide]	77	64	59	80	48	42	54	58	34	77	54	56	IC50 [1, 4]: 0.1 to 0.2 µM
